Assay results published in PMC6733504, “Effects of flavoring compounds used in electronic cigarette refill liquids on endothelial and vascular function” (PLoS ONE, 2019).

Assays:
[1] = target: T1, soluble guanylate cyclase (sGC) (Bos taurus, UniProt P16068+P19687); assay: Activity of purified sGC stimulated with DEA/NO; assay type: biochemical, bovine; conditions: for Emax of DEA/NO-stimulated sGC activity in presence of flavoring: flavoring 1 mM, DEA/NO 0.01–10 μM
T1 construct: The activity of sGC purified from bovine lung; from tissue; host or cells: bovine lung
T1 sequence (P19687 1-691): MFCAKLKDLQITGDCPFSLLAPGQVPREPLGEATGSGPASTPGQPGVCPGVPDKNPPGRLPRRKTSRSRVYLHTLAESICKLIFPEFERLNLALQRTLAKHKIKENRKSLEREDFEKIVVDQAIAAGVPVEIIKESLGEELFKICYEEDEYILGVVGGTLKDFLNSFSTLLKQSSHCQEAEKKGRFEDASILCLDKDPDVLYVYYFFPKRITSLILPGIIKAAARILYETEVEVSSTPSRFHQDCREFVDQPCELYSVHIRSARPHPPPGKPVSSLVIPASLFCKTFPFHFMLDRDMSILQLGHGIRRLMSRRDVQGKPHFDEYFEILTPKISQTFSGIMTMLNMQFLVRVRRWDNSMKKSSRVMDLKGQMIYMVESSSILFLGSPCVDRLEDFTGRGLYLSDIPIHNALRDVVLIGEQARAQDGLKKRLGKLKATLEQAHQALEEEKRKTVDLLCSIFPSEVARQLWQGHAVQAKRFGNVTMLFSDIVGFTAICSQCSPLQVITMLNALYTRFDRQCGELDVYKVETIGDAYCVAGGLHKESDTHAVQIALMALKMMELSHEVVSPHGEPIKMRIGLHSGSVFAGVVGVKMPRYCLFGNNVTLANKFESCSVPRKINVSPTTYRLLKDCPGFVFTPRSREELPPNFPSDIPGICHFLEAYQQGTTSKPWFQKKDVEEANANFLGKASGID
T1 sequence (P16068 1-619): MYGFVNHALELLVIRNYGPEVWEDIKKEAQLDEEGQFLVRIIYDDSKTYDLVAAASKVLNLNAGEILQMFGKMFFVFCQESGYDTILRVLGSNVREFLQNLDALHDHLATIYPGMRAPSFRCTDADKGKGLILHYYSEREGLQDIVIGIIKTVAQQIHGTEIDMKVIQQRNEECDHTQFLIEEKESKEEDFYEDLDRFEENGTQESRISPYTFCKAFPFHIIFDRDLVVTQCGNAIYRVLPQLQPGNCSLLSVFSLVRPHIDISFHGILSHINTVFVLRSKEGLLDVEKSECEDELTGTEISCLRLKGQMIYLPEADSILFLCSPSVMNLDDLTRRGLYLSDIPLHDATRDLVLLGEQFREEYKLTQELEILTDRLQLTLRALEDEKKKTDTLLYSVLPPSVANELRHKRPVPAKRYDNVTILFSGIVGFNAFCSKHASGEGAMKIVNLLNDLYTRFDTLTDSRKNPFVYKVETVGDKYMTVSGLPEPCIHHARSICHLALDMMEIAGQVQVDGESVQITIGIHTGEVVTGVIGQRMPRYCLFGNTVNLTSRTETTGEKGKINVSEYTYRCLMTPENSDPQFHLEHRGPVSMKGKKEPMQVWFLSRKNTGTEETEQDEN
Method: The activity of sGC purified from bovine lung was determined as formation of [^32P]cGMP from [α-^32P]GTP. The purified enzyme (50 ng) was incubated at 37°C for 10 min in a final volume of 0.1 ml in the absence or presence of flavorings with the NO donor DEA/NO at concentrations indicated in the figure legends, followed by isolation of [^32P]cGMP and quantification of radioactivity (Cerenkov radiation) in a β counter.
To test for reversibility of inhibition, sGC (50 ng) was preincubated in the absence or presence of the respective compounds for 5 minutes at 37°C, followed by 50-fold dilution in the assay mixtures and incubation with DEA/NO at 37°C for 10 minutes.

[2] = tested on: endothelium-denuded rat aortic rings; assay: cAMP and cGMP levels in endothelium-denuded aortic rings
Description: 1 S4 Table. […]
2 endothelium-denuded rat aortic rings.
Flavoring (fmol x mg-1) (fmol x mg-1)
4 En d o th e liu m-denuded rings, treated with test compounds as described in the
5 Materials and methods section of the main text, were freeze-clamped when maximal
6 relaxation had been reached. Rings were homogenized in 5% trichloroacetic acid
7 and analyzed for cAMP and cGMP by radioimmunoassay. Forskolin and DEA/NO
8 were used to induce maximal accumulation of cAMP and cGMP, respectively. Data
9 shown are mean values±SEM of 3 (forskolin and DEA/NO) or 6 (basal,
10 cinnamaldehyde and eugenol) rings; n.d., not determined, *p<0.05 vs. basal (ANOVA
11 and Dunnett's post hoc test).

[3] = tested on: endothelium-denuded rat aortic rings; assay: CaCl2-induced contractile response in endothelium-denuded aortic rings; conditions: Ca2+-free high K+ solution, CaCl2 0.156-2.5 mM
Method: Rings were treated with Ca2+-
4 free high K+ solution (containing 0.1 mM EG TA a n d 6 0 mM K+). The Ca2+-free
5 preparations were then cumulatively contracted with CaCl2 (0.156-2.5 mM) in the
6 absence or presence of cinnamaldehyde or eugenol. The established L-type Ca2+
9 Concentration-response curves obtained with different ring segments from a single
10 animal were averaged and counted as an individual experiment. Data are expressed
11 as mean values ±SEM ( n=3).
(1 picture or pasted object on this page, not shown here)

O=C/C=C/c1ccccc1 [Cinnamaldehyde, (2E)-3-Phenylprop-2-enal]
IC50 ([1]; DEA/NO 0.05 μM, 95% CI): 560 µM
Reversal of sGC inhibition by 50-fold dilution ([1]; enzyme pre-incubated 5 minutes with 1 mM): largely
Emax of DEA/NO-stimulated sGC activity in presence of flavoring [1]: 24±0.8 µmol cGMP x min-1 x mg-1
cAMP ([2]; 1 mM): 200±36 fmol x mg-1
cGMP ([2]; 1 mM): 127±10 fmol x mg-1
cAMP ([2]; 10 mM): 161±7 fmol x mg-1
cGMP ([2]; 10 mM): 86±7 fmol x mg-1
Effect on CaCl2-induced contraction [3]: significantly inhibited

C=CCc1ccc(O)c(OC)c1 [Eugenol, 2-Methoxy-4-(prop-2-en-1-yl)phenol]
Emax of DEA/NO-stimulated sGC activity in presence of flavoring [1]: 28±1.1 µmol cGMP x min-1 x mg-1
cAMP ([2]; 1 mM): 162±9 fmol x mg-1
cGMP ([2]; 1 mM): 81±4 fmol x mg-1
cAMP ([2]; 10 mM): 171±24 fmol x mg-1
cGMP ([2]; 10 mM): 71±18 fmol x mg-1
Effect on CaCl2-induced contraction [3]: significantly inhibited
